Reference: article PMC8659078, “A Validated HPLC-PDA-HRMS Method to Investigate the Biological Stability and Metabolism of Antiparasitic Triterpenic Esters” (Molecules, 2021)
Counter-ions that a name gives are not always drawn.

Columns and labels:
[1] = in vitro; details: male, mouse, pooled liver microsomes, pH 7.4
[2] = design: method as in earlier work; details: ref 3 (supplement); cited from earlier work
[3] = cited from earlier work

| SMILES | bound to plasma proteins [3] | also measured |
| --- | --- | --- |
| O=C(O)Cc1ccccc1Nc1c(Cl)cccc1Cl [Diclofenac, diclofenac sodium salt] |  | half-life [1]: 2.55 h |
| CCN(CC)CCOC(=O)c1ccc(N)cc1 [Procaine, Procaine hydrochloride] |  | time of hydrolysis by human plasma esterases into PABA [2]: ~ 10 min |
| C[C@H]1[C@H](C)CC[C@]2(C(=O)O)CC[C@]3(C)C(=CC[C@@H]4[C@@]5(C)C[C@@H](O)[C@H](O)[C@@](C)(CO)[C@@H]5CC[C@]43C)[C@H]12 [asiatic acid] | more than 95% |  |
| C=C(C)[C@@H]1CC[C@]2(C(=O)O)CC[C@]3(C)[C@H](CC[C@@H]4[C@@]5(C)CC[C@H](O)C(C)(C)[C@@H]5CC[C@]43C)[C@@H]12 [betulinic acid] | more than 95% |  |
| CC1(C)CC[C@]2(C(=O)O)CC[C@]3(C)C(=CC[C@@H]4[C@@]5(C)CC[C@H](O)C(C)(C)[C@@H]5CC[C@]43C)[C@@H]2C1 [oleanolic acid] | more than 95% |  |
| C[C@H]1[C@H](C)CC[C@]2(C(=O)O)CC[C@]3(C)C(=CC[C@@H]4[C@@]5(C)CC[C@H](O)C(C)(C)[C@@H]5CC[C@]43C)[C@H]12 [ursolic acid] | more than 95% |  |
